Laboratory results as given in ChEMBL document CHEMBL1155011, “Structure-activity relationships of the cycloalkanol ethylamine scaffold: discovery of selective norepinephrine reuptake inhibitors” (J Med Chem, 2008).

How the values were obtained:
[1] = target: T1, Sodium-dependent dopamine transporter (Homo sapiens, UniProt Q01959); test: biochemical
[2] = target: T2, Sodium-dependent serotonin transporter (Homo sapiens, UniProt P31645); test: Inhibition of 5HT uptake at human SERT expressed in human JAR cells at 1000 nM; type: cell-based
Target sequence in this assay (P31645 whole entry, looked up): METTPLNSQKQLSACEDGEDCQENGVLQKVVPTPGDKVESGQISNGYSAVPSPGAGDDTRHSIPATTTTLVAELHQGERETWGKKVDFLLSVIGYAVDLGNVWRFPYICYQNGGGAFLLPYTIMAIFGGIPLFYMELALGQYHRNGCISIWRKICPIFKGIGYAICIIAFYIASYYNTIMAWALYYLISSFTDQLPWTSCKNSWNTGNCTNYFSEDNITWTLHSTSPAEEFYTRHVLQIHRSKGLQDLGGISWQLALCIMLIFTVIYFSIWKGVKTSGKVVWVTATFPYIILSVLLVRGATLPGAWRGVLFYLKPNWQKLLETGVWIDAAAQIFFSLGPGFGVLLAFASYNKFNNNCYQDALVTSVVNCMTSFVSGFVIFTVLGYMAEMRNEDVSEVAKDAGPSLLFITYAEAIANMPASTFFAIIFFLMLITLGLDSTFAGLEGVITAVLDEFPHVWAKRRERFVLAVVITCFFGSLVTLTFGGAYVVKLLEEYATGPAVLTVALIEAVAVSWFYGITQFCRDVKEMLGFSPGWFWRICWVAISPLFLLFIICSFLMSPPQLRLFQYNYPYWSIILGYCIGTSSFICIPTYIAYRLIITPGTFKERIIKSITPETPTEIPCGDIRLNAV

[3] = target: T3, Sodium-dependent noradrenaline transporter (Homo sapiens, UniProt P23975)
T3 sequence (P23975 whole entry): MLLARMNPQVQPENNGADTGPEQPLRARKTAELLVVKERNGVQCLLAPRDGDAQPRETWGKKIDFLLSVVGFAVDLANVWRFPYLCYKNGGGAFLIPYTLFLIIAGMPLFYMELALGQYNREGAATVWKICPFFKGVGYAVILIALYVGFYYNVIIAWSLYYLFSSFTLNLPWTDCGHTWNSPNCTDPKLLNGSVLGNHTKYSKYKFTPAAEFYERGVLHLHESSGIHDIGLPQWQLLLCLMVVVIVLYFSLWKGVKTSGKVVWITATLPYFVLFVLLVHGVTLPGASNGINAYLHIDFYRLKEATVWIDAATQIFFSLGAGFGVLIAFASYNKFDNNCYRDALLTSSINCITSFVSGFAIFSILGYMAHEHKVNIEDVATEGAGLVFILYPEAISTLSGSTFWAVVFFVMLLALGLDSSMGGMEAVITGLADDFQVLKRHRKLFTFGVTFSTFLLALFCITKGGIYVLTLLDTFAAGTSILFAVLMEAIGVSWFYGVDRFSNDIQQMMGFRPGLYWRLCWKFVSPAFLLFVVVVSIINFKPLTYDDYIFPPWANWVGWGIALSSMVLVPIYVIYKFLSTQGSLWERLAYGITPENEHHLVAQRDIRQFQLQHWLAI

[4] = target: T3, Sodium-dependent noradrenaline transporter; test: biochemical
Description: Displacement of [3H]nisoxetine from human norepinephrine transporter expressed in MDCK-Net6 cells

[5] = target: T1, Sodium-dependent dopamine transporter; test: Displacement of [3H]WIN-35428 from human recombinant dopamine transporter expressed in CHO cells at 1000 nM; type: cell-based
[6] = target: T3, Sodium-dependent noradrenaline transporter; test: Inhibition of norepinephrine uptake at human norepinephrine transporter expressed in MDCK-Net6 cells at 1000 nM; type: cell-based
[7] = species on record: Homo sapiens; test: Selectivity ratio of IC50 for human NET over IC50 for human SERT
[8] = target: Sodium-dependent serotonin transporter (Rattus norvegicus, UniProt P31652)
Chain of Sodium-dependent serotonin transporter (Rattus norvegicus, UniProt P31652) (P31652 whole entry): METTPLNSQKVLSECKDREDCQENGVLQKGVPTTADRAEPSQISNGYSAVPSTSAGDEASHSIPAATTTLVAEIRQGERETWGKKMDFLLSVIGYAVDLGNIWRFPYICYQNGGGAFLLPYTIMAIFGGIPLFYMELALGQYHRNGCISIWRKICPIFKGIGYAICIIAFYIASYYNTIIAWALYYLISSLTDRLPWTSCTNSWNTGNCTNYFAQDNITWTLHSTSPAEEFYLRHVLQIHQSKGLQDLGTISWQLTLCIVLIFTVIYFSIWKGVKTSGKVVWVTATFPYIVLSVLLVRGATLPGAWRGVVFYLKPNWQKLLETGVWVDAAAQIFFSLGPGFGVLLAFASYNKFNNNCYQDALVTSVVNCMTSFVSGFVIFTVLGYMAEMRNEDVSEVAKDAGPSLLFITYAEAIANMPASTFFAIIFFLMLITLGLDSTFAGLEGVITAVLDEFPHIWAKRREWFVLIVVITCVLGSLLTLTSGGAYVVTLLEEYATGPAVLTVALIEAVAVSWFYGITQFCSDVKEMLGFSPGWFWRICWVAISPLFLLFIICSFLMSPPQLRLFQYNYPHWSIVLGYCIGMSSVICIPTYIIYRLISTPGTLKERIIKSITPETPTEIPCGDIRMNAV
Description: Inhibition of 5HT uptake at rat brain SERT

[9] = target: Transporter (Rattus norvegicus, UniProt Q63380)
Chain of Transporter (Q63380 whole entry): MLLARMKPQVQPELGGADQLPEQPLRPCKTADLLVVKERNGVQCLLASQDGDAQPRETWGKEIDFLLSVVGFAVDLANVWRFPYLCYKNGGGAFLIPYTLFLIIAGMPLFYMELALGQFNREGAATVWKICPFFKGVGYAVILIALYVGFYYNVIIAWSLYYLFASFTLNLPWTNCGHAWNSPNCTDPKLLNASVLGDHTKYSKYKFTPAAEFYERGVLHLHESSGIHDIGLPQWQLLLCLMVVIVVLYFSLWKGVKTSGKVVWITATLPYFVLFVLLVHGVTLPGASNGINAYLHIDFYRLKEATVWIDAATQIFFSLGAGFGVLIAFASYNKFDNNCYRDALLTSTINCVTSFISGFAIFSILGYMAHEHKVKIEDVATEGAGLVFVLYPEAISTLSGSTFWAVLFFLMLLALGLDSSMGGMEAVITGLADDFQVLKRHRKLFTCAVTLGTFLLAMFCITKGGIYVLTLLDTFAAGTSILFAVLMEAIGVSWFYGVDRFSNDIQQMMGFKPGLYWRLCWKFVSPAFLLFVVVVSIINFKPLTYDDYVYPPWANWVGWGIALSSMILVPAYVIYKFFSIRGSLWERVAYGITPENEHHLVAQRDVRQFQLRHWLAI
Description: Inhibition of norepinephrine uptake at rat brain norepinephrine transporter

[10] = target: T2, Sodium-dependent serotonin transporter; type: cell-based, JAR
Target sequence in this assay (P31645 whole entry): as the sequence (P31645 whole entry, looked up) above

T1 sequence (Q01959 whole entry): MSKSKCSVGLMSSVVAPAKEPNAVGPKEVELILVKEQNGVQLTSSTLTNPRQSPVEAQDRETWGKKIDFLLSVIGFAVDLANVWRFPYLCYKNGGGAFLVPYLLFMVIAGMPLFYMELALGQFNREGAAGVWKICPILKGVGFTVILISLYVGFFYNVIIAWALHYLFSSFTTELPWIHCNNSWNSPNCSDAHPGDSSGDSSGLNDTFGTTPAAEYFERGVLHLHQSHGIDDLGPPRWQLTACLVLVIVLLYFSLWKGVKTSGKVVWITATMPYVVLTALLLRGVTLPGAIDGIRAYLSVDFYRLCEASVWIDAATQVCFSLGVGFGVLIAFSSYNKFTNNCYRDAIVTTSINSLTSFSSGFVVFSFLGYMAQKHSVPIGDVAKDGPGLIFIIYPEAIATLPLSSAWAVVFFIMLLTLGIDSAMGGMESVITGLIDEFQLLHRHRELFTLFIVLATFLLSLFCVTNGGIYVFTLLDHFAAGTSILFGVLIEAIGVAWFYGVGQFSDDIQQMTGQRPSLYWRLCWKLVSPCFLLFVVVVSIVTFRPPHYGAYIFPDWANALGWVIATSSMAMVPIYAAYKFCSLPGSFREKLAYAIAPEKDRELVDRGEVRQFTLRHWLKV

Ki [1] [nM] | inhibition [2] [%] | IC50 [3] [nM] | Ki [4] [nM] | Activity [5] [%] | inhibition [6] [%] | Ratio IC50 [7] | IC50 [8] [nM] | IC50 [9] [nM] | IC50 [10] [nM] | SMILES
 | 0 |  | 1220 | 26 | 7 |  |  |  |  | CN1CCN(CC(c2ccc(Cl)cc2)C2(O)CCCCC2)CC1 (stereo not given)
 |  |  |  | 0 |  |  |  |  |  | CN(C)C[C@H](c1cccc(Cl)c1)C1(O)CCCCC1
340 |  | 540 | 214 |  |  |  |  |  | 6100 | OC1([C@@H](CN2CCNCC2)c2cccc(Cl)c2)CCCCC1

Second part, the molecule before the results:

SMILES | Ki [1] [nM] | inhibition [2] [%] | IC50 [3] [nM] | Ki [4] [nM] | Activity [5] [%] | inhibition [6] [%] | Ratio IC50 [7] | IC50 [8] [nM] | IC50 [9] [nM] | IC50 [10] [nM]
CN1CCN(C[C@@H](c2cccc(Cl)c2)C2(O)CCCCC2)CC1 | 235 | 0 | 577 | 187 |  |  |  |  |  | 
COc1ccc(C(CN2CCN(C)CC2)C2(O)CCCCC2)cc1 (stereo not given) |  | 11 |  |  | 0 | 34 |  |  |  | 
CN(C)CC(c1ccccc1Cl)C1(O)CCCCC1 (stereo not given) |  |  | 205 | 125 | 9 |  | 0.86 | 13 | 640 | 177
CN1CCN(CC(c2cccc(Cl)c2)C2(O)CCCCC2)CC1 (stereo not given) | 53 |  | 58 | 46 |  |  |  |  |  | 18800
OC1(C(CN2CCNCC2)c2cccc(F)c2)CCCCC1 (stereo not given) |  | 12 | 673 | 368 | 22 |  |  |  |  | 
COc1ccc(C(CN2CCNCC2)C2(O)CCCCC2)cc1 (stereo not given) |  | 24 |  | 519 | 9 | 34 |  |  |  | 
